Experimental data from PubChem BioAssay (NCI).
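The compound was tested at five concentrations on cells cultured in 96-well plates, with a 48-hour exposure period. TGI is the concentration that stops growth completely.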

Experiments:
Assay in all cases: NCI anticancer screen, dose series, 48 h
UO-31 renal = tested on: UO-31 renal
SW-620 colon = tested on: SW-620 colon
NCI/ADR-RES ovarian = tested on: NCI/ADR-RES ovarian
RPMI-8226 leukemia = tested on: RPMI-8226 leukemia
ACHN renal = tested on: ACHN renal
SK-MEL-28 melanoma = tested on: SK-MEL-28 melanoma
TK-10 renal = tested on: TK-10 renal
SN12C renal = tested on: SN12C renal
HCT-116 colon = tested on: HCT-116 colon
IGROV1 ovarian = tested on: IGROV1 ovarian
U251 CNS = tested on: U251 CNS
SK-MEL-5 melanoma = tested on: SK-MEL-5 melanoma
T-47D breast = tested on: T-47D breast
NCI-H226 lung = tested on: NCI-H226 lung
SK-MEL-2 melanoma = tested on: SK-MEL-2 melanoma
NCI-H460 lung = tested on: NCI-H460 lung
MDA-MB-231 breast = tested on: MDA-MB-231 breast
MALME-3M melanoma = tested on: MALME-3M melanoma
HL-60(TB) leukemia = tested on: HL-60(TB) leukemia
MOLT-4 leukemia = tested on: MOLT-4 leukemia
NCI-H522 lung = tested on: NCI-H522 lung
NCI-H23 lung = tested on: NCI-H23 lung
DU-145 prostate = tested on: DU-145 prostate
OVCAR-8 ovarian = tested on: OVCAR-8 ovarian
CCRF-CEM leukemia = tested on: CCRF-CEM leukemia
HT29 colon = tested on: HT29 colon
SNB-75 CNS = tested on: SNB-75 CNS
A498 renal = tested on: A498 renal
M14 melanoma = tested on: M14 melanoma
EKVX NSCLC = tested on: EKVX NSCLC
A549 NSCLC = tested on: A549 NSCLC
SNB-19 CNS = tested on: SNB-19 CNS
COLO 205 colon = tested on: COLO 205 colon
UACC-257 melanoma = tested on: UACC-257 melanoma
SF-268 CNS = tested on: SF-268 CNS
786-0 renal = tested on: 786-0 renal
HS 578T breast = tested on: HS 578T breast
HCC-2998 colon = tested on: HCC-2998 colon
K-562 leukemia = tested on: K-562 leukemia
HOP-92 NSCLC = tested on: HOP-92 NSCLC
SK-OV-3 ovarian = tested on: SK-OV-3 ovarian
RXF 393 renal = tested on: RXF 393 renal
HOP-62 NSCLC = tested on: HOP-62 NSCLC
UACC-62 melanoma = tested on: UACC-62 melanoma
HCT-15 colon = tested on: HCT-15 colon
SF-295 CNS = tested on: SF-295 CNS
MCF7 breast = tested on: MCF7 breast
SR leukemia = tested on: SR leukemia
PC-3 prostate = tested on: PC-3 prostate
BT-549 breast = tested on: BT-549 breast
OVCAR-5 ovarian = tested on: OVCAR-5 ovarian
LOX IMVI melanoma = tested on: LOX IMVI melanoma

Measured: TGI

CCN(CCN(CC)C(=O)Nc1ccccc1)C(=O)Nc1ccccc1
> 100 µM: UO-31 renal | SW-620 colon | NCI/ADR-RES ovarian | RPMI-8226 leukemia | ACHN renal | SK-MEL-28 melanoma | TK-10 renal | SN12C renal | HCT-116 colon | IGROV1 ovarian | U251 CNS | SK-MEL-5 melanoma | T-47D breast | NCI-H226 lung | SK-MEL-2 melanoma | NCI-H460 lung | MDA-MB-231 breast | MALME-3M melanoma | HL-60(TB) leukemia | MOLT-4 leukemia | NCI-H522 lung | NCI-H23 lung | DU-145 prostate | OVCAR-8 ovarian | CCRF-CEM leukemia | HT29 colon | SNB-75 CNS | A498 renal | M14 melanoma | EKVX NSCLC | A549 NSCLC | SNB-19 CNS | COLO 205 colon | UACC-257 melanoma | SF-268 CNS | 786-0 renal | HS 578T breast | HCC-2998 colon | K-562 leukemia | HOP-92 NSCLC | SK-OV-3 ovarian | RXF 393 renal | HOP-62 NSCLC | UACC-62 melanoma | HCT-15 colon | SF-295 CNS | MCF7 breast | SR leukemia | PC-3 prostate | BT-549 breast | OVCAR-5 ovarian | LOX IMVI melanoma
